In ChEMBL document CHEMBL5149982, “Development of Potent NEDD8-Activating Enzyme Inhibitors Bearing a Pyrimidotriazole Scaffold” (J Med Chem, 2021):

Experiments:
THP-1 = assay: Antiproliferative activity against human THP-1 cells assessed as cell growth inhibition measured after 72 hrs by SRB assay; type: functional, cell-based; details: THP-1, 72 h
[1] = molecular target: Voltage-gated inwardly rectifying potassium channel KCNH2 (Homo sapiens, UniProt Q12809); assay: Inhibition of hERG channel; type: toxicity
Voltage-gated inwardly rectifying potassium channel KCNH2, sequence (Q12809 whole entry): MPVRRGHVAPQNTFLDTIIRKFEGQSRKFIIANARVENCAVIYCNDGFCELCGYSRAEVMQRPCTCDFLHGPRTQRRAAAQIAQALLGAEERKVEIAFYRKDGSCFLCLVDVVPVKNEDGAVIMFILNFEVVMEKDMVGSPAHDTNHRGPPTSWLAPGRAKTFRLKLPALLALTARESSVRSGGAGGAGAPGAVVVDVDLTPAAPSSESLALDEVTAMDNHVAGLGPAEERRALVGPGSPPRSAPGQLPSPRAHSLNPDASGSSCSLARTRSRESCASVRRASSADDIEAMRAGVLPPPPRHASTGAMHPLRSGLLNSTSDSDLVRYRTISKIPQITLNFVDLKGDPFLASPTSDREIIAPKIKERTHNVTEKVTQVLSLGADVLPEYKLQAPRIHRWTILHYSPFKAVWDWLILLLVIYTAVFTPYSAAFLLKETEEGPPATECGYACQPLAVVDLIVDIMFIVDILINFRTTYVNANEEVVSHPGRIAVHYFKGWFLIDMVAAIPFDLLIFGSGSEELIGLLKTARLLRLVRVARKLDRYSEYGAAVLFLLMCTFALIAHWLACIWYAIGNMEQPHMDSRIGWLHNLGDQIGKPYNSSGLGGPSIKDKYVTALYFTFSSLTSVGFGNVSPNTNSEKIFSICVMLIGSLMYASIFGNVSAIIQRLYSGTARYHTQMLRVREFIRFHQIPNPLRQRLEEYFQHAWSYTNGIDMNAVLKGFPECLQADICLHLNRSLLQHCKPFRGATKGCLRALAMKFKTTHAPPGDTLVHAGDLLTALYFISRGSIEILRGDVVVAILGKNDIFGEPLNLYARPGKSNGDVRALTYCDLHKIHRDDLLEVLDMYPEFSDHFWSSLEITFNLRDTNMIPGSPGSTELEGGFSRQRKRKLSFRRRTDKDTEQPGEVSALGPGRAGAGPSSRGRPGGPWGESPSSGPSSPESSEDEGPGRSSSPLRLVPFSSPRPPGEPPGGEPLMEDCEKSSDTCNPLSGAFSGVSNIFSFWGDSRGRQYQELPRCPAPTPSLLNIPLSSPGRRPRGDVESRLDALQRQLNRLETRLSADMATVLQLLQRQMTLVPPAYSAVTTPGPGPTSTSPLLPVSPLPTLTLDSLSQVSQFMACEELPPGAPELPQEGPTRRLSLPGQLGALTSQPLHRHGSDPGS

[2] = Toxicity in nude mouse xenografted with human HCT-116 cells assessed as effect on body weight at 60 mg/kg, sc bid administered at 5 on/5 off/8 for 18 days; type: organism-based; details: in vivo, 432 h, time 18 day
[3] = Observed AUCinfinity in Sprague-Dawley rat at 1 mg/kg, iv; type: ADME, organism-based; set-up: time infinity, dose 1 mg/kg, route iv; details: in vivo
DU-145 = assay: Antiproliferative activity against human DU-145 cells assessed as cell growth inhibition measured after 72 hrs by SRB assay; type: functional, cell-based; details: DU-145, 72 h
HCT-116 [4] = assay: Antitumor activity against human HCT-116 cells xenografted in nude mouse assessed as reduction in tumor growth at 60 mg/kg, sc bid administered at 5 on/5 off/8 for 18 days; type: functional; details: time 18 day
[5] = AUClast in Sprague-Dawley rat at 1 mg/kg, iv; type: ADME, organism-based; set-up: time 0 - last, dose 1 mg/kg, route iv; details: in vivo
[6] = Observed MRTinfinity in Sprague-Dawley rat at 1 mg/kg, iv; type: ADME, organism-based; details: in vivo
HCT-116 [7] = assay: Antiproliferative activity against human HCT-116 cells assessed as cell growth inhibition by sulforhodamine B assay; type: functional, cell-based
LNCaP-Clone-FGC = assay: Antiproliferative activity against human LNCaP-Clone-FGC cells assessed as cell growth inhibition measured after 72 hrs by SRB assay; type: functional, cell-based
HCT-116 [8] = assay: Antiproliferative activity against human HCT-116 cells assessed as cell growth inhibition measured after 72 hrs by SRB assay; type: functional, cell-based; details: HCT-116, 72 h
[9] = Half life in Sprague-Dawley rat at 1 mg/kg, iv; type: ADME, organism-based; details: in vivo
[10] = Volume of distribution at steady state in Sprague-Dawley rat at 1 mg/kg, iv; type: ADME, organism-based; details: in vivo, read-out: Vdss
[11] = Inhibition of UAE (unknown origin) […] assessed as decrease in UbcH10-Ub adduct formation incubated for 2 hrs in presence of L-glutathione and ATP by HTRF assay; set-up: species or system Homo sapiens
Jurkat = assay: Antiproliferative activity against human Jurkat cells assessed as cell growth inhibition measured after 72 hrs by SRB assay; type: functional, cell-based
HT-29 = assay: Antiproliferative activity against human HT-29 cells assessed as cell growth inhibition measured after 72 hrs by SRB assay; type: functional, cell-based; details: HT-29, 72 h
CAPAN-1 = assay: Antiproliferative activity against human CAPAN-1 cells assessed as cell growth inhibition measured after 72 hrs by SRB assay; type: functional, cell-based; details: CAPAN-1, 72 h
[12] = molecular target: T1, Serine/threonine-protein kinase TAO1 (Homo sapiens) (UniProt Q7L7X3); assay: Inhibition of human partial length wild type TAOK1 by measuring selectivity score at 1 uM by Kinomescan method relative to control
T1 sequence (whole entry): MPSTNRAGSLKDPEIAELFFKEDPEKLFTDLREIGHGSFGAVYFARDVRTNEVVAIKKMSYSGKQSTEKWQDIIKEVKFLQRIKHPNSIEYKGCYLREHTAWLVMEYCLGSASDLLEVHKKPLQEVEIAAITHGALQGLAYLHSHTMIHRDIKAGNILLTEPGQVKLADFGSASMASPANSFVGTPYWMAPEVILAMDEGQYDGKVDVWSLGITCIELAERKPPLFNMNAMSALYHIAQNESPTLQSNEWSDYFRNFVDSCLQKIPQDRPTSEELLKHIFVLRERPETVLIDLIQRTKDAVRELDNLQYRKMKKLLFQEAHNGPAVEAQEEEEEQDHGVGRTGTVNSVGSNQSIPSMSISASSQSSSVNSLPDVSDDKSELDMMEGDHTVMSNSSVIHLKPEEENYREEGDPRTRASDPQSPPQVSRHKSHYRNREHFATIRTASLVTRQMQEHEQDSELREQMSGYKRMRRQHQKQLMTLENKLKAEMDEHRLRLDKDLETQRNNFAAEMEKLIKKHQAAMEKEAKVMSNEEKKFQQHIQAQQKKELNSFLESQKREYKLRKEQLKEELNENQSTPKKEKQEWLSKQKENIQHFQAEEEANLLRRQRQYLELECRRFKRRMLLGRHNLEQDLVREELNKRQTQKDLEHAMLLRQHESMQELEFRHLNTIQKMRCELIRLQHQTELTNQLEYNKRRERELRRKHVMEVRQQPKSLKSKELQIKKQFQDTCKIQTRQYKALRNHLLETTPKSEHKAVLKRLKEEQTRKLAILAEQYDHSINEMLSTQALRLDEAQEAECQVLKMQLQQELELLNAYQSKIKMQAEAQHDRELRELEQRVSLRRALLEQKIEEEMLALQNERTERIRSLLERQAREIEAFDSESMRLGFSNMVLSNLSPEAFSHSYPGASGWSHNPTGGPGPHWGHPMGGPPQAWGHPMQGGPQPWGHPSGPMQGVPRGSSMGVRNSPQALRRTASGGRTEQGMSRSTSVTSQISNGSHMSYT

HuTu80 = assay: Antiproliferative activity against human HuTu80 cells assessed as cell growth inhibition measured after 72 hrs by SRB assay; type: functional, cell-based; details: HuTu80, 72 h
MV4-11 = assay: Antiproliferative activity against human MV4-11 cells assessed as cell growth inhibition measured after 72 hrs by SRB assay; type: functional, cell-based; details: MV4-11, 72 h
RKO = assay: Antiproliferative activity against human RKO cells assessed as cell growth inhibition measured after 72 hrs by SRB assay; type: functional, cell-based
[13] = Clearance in Sprague-Dawley rat at 1 mg/kg, iv; type: ADME, organism-based; details: in vivo
[14] = molecular target: T1, Serine/threonine-protein kinase TAO1 (Homo sapiens); assay: Inhibition of human partial length wild type TAOK1 at 1 uM by Kinomescan method relative to control

IC50 (THP-1): 115 nM | AUC(0-inf) [3]: 1340 ng·h/mL | IC50 (DU-145): 201 nM | AUC(0-t) [5]: 1330 ng·h/mL | MRT inf [6]: 1.9 h | IC50 (HCT-116 [7]): 33.9 nM | IC50 (LNCaP-Clone-FGC): 64.6 nM | IC50 (HCT-116 [8]): 36.2 nM | half-life [9]: 1.36 h | Vd [10]: 1.63 L/kg | IC50 [11]: 3.72 nM | IC50 (Jurkat): 152 nM | IC50 (HT-29): 484 nM | Activity [12]: 0.002 | IC50 (MV4-11): 107 nM | clearance [13]: 16.5 mL/min/kg | inhibition [14]: 35%
SMILES: NS(=O)(=O)OC[C@@H]1C[C@@H](n2ccc3c(N[C@H]4CCc5ccccc54)ncnc32)C[C@@H]1O [PEVONEDISTAT]
IC50 [1]: > 40000 nM | Activity [2]: Non-Toxic | T/C (HCT-116 [4]): 0.1 | IC50 (CAPAN-1): 101 nM | IC50 (HuTu80): 42.6 nM | IC50 (RKO): 166 nM
